Results on 12 molecules are retold here after patent US8865698B2, “Method of treatment using substituted pyrazolo[1,5-a]pyrimidine compounds” (Array BioPharma Inc., priority 2008, dated 2014).

This experiment deals with histidine-tagged recombinant human TrkA, cytoplasmic domain (Homo sapiens (Human), UniProt P04629). Briefly: TrkA ELISA Assay. The experiment is classed as biochemical. The conditions noted are these: 2.5 nM TrkA, 500 μM ATP, 25 minutes; read-out: TrkA Elisa Enzyme IC50. As to the method: An enzyme-linked immunosorbant assay (ELISA) was used to assess TrkA kinase activity in the presence of inhibitors. Immulon 4HBX 384-well microtiter plates (Thermo part #8755) were coated with a 0.025 mg/mL solution of poly (Glu, Ala, Tyr; 6:3:1; Sigma P3899). Various concentrations of test compound, 2.5 nM TrkA (Invitrogen Corp., histidine-tagged recombinant human TrkA, cytoplasmic domain), and 500 μM ATP were incubated for 25 minutes at ambient temperature in the coated plates while shaking. The assay buffer consisted of 25 mM MOPS pH 7.5, 0.005% (v/v) Triton X-100 and 5 mM MgCl2. The reaction mixture was removed from the plate by washing with PBS containing 0.1% (v/v) Tween 20. The phosphorylated reaction product was detected using 0.2 μg/mL of a phosphotyrosine specific monoclonal antibody (clone PY20) conjugated to horseradish peroxidase in conjunction with the TMB Peroxidase Substrate System (KPL). After the addition of 1M phosphoric acid, the chromogenic substrate color intensity was quantitated via absorbance at 450 nm. IC50 values were calculated using either a 4 or 5-parameter logistic curve fit.
histidine-tagged recombinant human TrkA, cytoplasmic domain, sequence (P04629 440-796): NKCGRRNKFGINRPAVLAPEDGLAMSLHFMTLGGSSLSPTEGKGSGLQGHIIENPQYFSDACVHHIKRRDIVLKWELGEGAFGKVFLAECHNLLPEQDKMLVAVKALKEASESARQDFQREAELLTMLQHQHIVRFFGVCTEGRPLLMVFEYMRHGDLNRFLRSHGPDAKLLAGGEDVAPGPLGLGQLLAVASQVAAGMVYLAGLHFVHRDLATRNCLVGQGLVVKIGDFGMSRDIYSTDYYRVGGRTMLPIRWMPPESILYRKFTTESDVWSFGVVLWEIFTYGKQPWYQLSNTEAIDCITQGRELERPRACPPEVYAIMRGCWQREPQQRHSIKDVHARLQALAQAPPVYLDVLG
On the technique in general: ELISA stands for enzyme-linked immunosorbent assay.

Molecules are shown by their SMILES. Where a name gives a salt, the structure may show the parent alone.

One may read the IC50 as the point on the concentration scale where inhibition reaches its midpoint. On to `C[C@H]1CN(C(=O)Nc2cnn3ccc(N4CCC[C@@H]4c4cc(F)ccc4Cl)nc23)CCN1` [Example 25, (S)—N-(5-((R)-2-(2-chloro-5-fluorophenyl)pyrrolidin-1-yl)pyrazolo[1,5-a]pyrimidin-3-yl)-3-methylpiperazine-1-carboxamide hydrochloride], for which the IC50 was 82.3 nM. Under `CC(C)N1CCN(C(=O)Nc2cnn3ccc(N4CCC[C@@H]4c4cc(F)ccc4F)nc23)CC1` [Example 26, (R)—N-(5-(2-(2,5-difluorophenyl)pyrrolidin-1-yl)pyrazolo[1,5-a]pyrimidin-3-yl)-4-isopropylpiperazine-1-carboxamide] stands 45 nM; under `CCN1CCN(C(=O)Nc2cnn3ccc(N4CCC[C@@H]4c4cc(F)ccc4F)nc23)CC1` [Example 27, (R)—N-(5-(2-(2,5-difluorophenyl)pyrrolidin-1-yl)pyrazolo[1,5-a]pyrimidin-3-yl)-4-ethylpiperazine-1-carboxamide], 107 nM; under `CN1CCN(C(=O)Nc2cnn3ccc(N4CCC[C@@H]4c4cc(F)ccc4F)nc23)CC1` [Example 28, (R)—N-(5-(2-(2,5-difluorophenyl)pyrrolidin-1-yl)pyrazolo[1,5-a]pyrimidin-3-yl)-4-methylpiperazine-1-carboxamide], 57.4 nM. Under `CC1CN(C(=O)Nc2cnn3ccc(N4CCC[C@@H]4c4cc(F)ccc4F)nc23)CC(C)N1` (stereo partly drawn) [Example 29] stands 98 nM; under `C[C@H]1CN(C(=O)Nc2cnn3ccc(N4CCC[C@@H]4c4cc(F)ccc4F)nc23)CCN1C(=O)OC(C)(C)C` [Example 30, (S)-tert-butyl 4-(5-((R)-2-(2,5-difluorophenyl)pyrrolidin-1-yl)pyrazolo[1,5-a]pyrimidin-3-ylcarbamoyl)-2-methylpiperazine-1-carboxylate], 154 nM; under `C[C@H]1CN(C(=O)Nc2cnn3ccc(N4CCC[C@@H]4c4cc(F)ccc4F)nc23)CCN1` [Example 31, (S)—N-(5-((R)-2-(2,5-difluorophenyl)pyrrolidin-1-yl)pyrazolo[1,5-a]pyrimidin-3-yl)-3-methylpiperazine-1-carboxamide hydrochloride], 88.3 nM.

Regarding `O=C(Nc1cnn2ccc(N3CCC[C@@H]3c3cccc(F)c3)nc12)N1CC(O)C1` [Example 32, (R)—N-(5-(2-(3-fluorophenyl)pyrrolidin-1-yl)pyrazolo[1,5-a]pyrimidin-3-yl)-3-hydroxyazetidine-1-carboxamide], the half-inhibitory concentration (IC50) came out at 116 nM. The result for `COC(=O)C1(C(=O)Nc2cnn3ccc(N4CCC[C@@H]4c4cc(F)ccc4F)nc23)CC1` [Example 33, (R)-methyl 1-(5-(2-(2,5-difluorophenyl)pyrrolidin-1-yl)pyrazolo[1,5-a]pyrimidin-3-ylcarbamoyl)cyclopropanecarboxylate] reads 4.7 nM. For the molecule `O=C(O)C1(C(=O)Nc2cnn3ccc(N4CCC[C@@H]4c4cc(F)ccc4F)nc23)CC1` [Example 34, (R)-1-(5-(2-(2,5-difluorophenyl)pyrrolidin-1-yl)pyrazolo[1,5-a]pyrimidin-3-ylcarbamoyl)cyclopropanecarboxylic acid], the IC50 came out at 98.2 nM. Regarding `O=C(Nc1cnn2ccc(N3CCC[C@@H]3c3cc(F)cc(Cl)c3)nc12)N1CC[C@H](O)C1` [Example 35, (S)—N-(5-((R)-2-(3-chloro-5-fluorophenyl)pyrrolidin-1-yl)pyrazolo[1,5-a]pyrimidin-3-yl)-3-hydroxypyrrolidine-1-carboxamide], the IC50 was determined as 20.2 nM.

As for `O=C(Nc1cnn2ccc(N3CCC[C@@H]3c3cc(F)ccc3C(F)F)nc12)N1CC[C@@H](O)C1` [Example 36, (R)—N-(5-((R)-2-(2-(difluoromethyl)-5-fluorophenyl)pyrrolidin-1-yl)pyrazolo[1,5-a]pyrimidin-3-yl)-3-hydroxypyrrolidine-1-carboxamide], the IC50 was 18 nM.
